From patent US8227240B2, “Systems for screening pharmaceutical chemicals” (The Washington University, priority 2001, dated 2012)

Assays:
cardiac fibroblasts = assay: Mechanical tests of tissue model rings cultured with MMP inhibitor; format: cell-based; settings: 50 μM GM6001 for 6 days
Method: The tissue models made using cardiac fibroblasts are incubated with 50 .μM GM6001 for 6 days. The tissue culture medium is replenished every other day with fresh medium containing GM6001. The tissue model rings were subjected to mechanical tests as described above.

animals = settings: in vivo; cited from earlier work
MMPs = settings: purified system; cited from earlier work

CNC(=O)[C@H](Cc1c[nH]c2ccccc12)NC(=O)[C@@H](CC(=O)NO)CC(C)C [GM6001, N-[(2R)-2-(Hydroxamid-ocarbonylmethyl)-4-methylpentanoyl]-L-tryptophan methylamide]
mechanical properties of tissue model rings compared to controls (cardiac fibroblasts): significant reduction | concentration of inhibitor at which effects in animals can be observed (animals): sub mmol/l | Ki values for different MMPs (MMPs): around nmol/l
